Source: PubChem BioAssay AID1963430 (Molecular Pharmacology Branch, DTP, NCI, 2024)

Tested on: 521955-158-R2-J5-PDC complex spheroid growth, % test/control
Assay: Anticancer human tumor 521955-158-R2-J5-PDC patient-derived pancreatic carcinoma cell line growth inhibition [Asc]
Settings: for IC50: curve of first compound; for viability, T/C: stronger effect = lower value
Method in brief: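 Spheroid model: tumor line + HUVEC + hMSC. Single agents and combinations; top conc. at/near clinical Cmax (10 microM if undetermined), half-log dilutions. DMSO stocks at 800-fold test concentration.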

[1] = second compound 0.1 µM, first compound 0.00316 µM
[2] = second compound 0.1 µM, first compound 0.01 µM
[3] = second compound 0.1 µM, first compound 0.0316 µM
[4] = second compound 0.1 µM, first compound 0.1 µM
[5] = second compound 0.1 µM, first compound 0.316 µM
[6] = second compound 0.1 µM, first compound 1 µM
[7] = second compound 0.316 µM, first compound 0.00316 µM
[8] = second compound 0.316 µM, first compound 0.01 µM
[9] = second compound 0.316 µM, first compound 0.0316 µM
[10] = second compound 0.316 µM, first compound 0.1 µM
[11] = second compound 0.316 µM, first compound 0.316 µM
[12] = second compound 0.316 µM, first compound 1 µM
[13] = second compound 1 µM, first compound 0.00316 µM
[14] = second compound 1 µM, first compound 0.01 µM
[15] = second compound 1 µM, first compound 0.0316 µM
[16] = second compound 1 µM, first compound 0.1 µM
[17] = second compound 1 µM, first compound 0.316 µM
[18] = second compound 1 µM, first compound 1 µM
[19] = second compound 3.16 µM, first compound 0.00316 µM
[20] = second compound 3.16 µM, first compound 0.01 µM
[21] = second compound 3.16 µM, first compound 0.0316 µM
[22] = second compound 3.16 µM, first compound 0.1 µM
[23] = second compound 3.16 µM, first compound 0.316 µM
[24] = second compound 3.16 µM, first compound 1 µM
[25] = second compound 10 µM, first compound 0.00316 µM
[26] = second compound 10 µM, first compound 0.01 µM
[27] = second compound 10 µM, first compound 0.0316 µM
[28] = second compound 10 µM, first compound 0.1 µM
[29] = second compound 10 µM, first compound 0.316 µM
[30] = second compound 10 µM, first compound 1 µM
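Also: spheroids exposed to agents for 7 days before readout.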
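For viability, T/C in this document: 100% = DMSO vehicle control viability.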

| SMILES | IC50 (second compound 0.1 µM) [nM] | IC50 (second compound 0.316 µM) [nM] | IC50 (second compound 1 µM) [nM] | IC50 (second compound 3.16 µM) [nM] | IC50 (second compound 10 µM) [nM] | viability, T/C [1] [%] | viability, T/C [2] [%] | viability, T/C [3] [%] | viability, T/C [4] [%] | viability, T/C [5] [%] | viability, T/C [6] [%] | viability, T/C [7] [%] | viability, T/C [9] [%] | viability, T/C [10] [%] | viability, T/C [15] [%] | viability, T/C [16] [%] | viability, T/C [21] [%] | viability, T/C [22] [%] | viability, T/C [27] [%] | viability, T/C [28] [%] | also measured |
| --- | --- | --- | --- | --- | --- | --- | --- | --- | --- | --- | --- | --- | --- | --- | --- | --- | --- | --- | --- | --- | --- |
| CCN1CCN(Cc2ccc(Nc3ncc(F)c(-c4cc(F)c5nc(C)n(C(C)C)c5c4)n3)nc2)CC1 + Cc1c(S(C)(=O)=O)c(-c2cc(F)cc(N3CCN(c4ccc(NS(=O)(=O)c5ccc(NC(CCN6CCC(C(=O)OCCCP(=O)(O)O)CC6)CSc6ccccc6)c(S(=O)(=O)C(F)(F)F)c5)cc4)CC3)c2)c(-c2ccc(Cl)cc2)n1C(C)C | 3.16 | 3.16 | > 1000 | > 1000 | > 1000 | 86.2 | 34.5 | 42.2 | 48.3 | 73 | 87.6 | 69 | 41.4 | 46.5 | 59.6 | 50.7 | 43.8 | 61.4 | 120 | 179 | viability, T/C [8]: 61%; viability, T/C [11]: 77.7%; viability, T/C [12]: 92.8%; viability, T/C [13]: 77.5%; viability, T/C [14]: 56.5%; viability, T/C [17]: 65.6%; viability, T/C [18]: 114%; viability, T/C [19]: 58%; viability, T/C [20]: 50.1%; viability, T/C [23]: 74.3%; viability, T/C [24]: 88.4%; viability, T/C [25]: 171%; viability, T/C [26]: 111%; viability, T/C [29]: 162%; viability, T/C [30]: 142% |
| Cn1ncnc1[C@H]1c2n[nH]c(=O)c3cc(F)cc(c23)N[C@@H]1c1ccc(F)cc1 + Cc1c(S(C)(=O)=O)c(-c2cc(F)cc(N3CCN(c4ccc(NS(=O)(=O)c5ccc(NC(CCN6CCC(C(=O)OCCCP(=O)(O)O)CC6)CSc6ccccc6)c(S(=O)(=O)C(F)(F)F)c5)cc4)CC3)c2)c(-c2ccc(Cl)cc2)n1C(C)C | > 100 | > 100 | 53.1 | 29 | > 100 | 61.1 | 67.2 | 53.3 | 53.1 |  |  | 74.6 | 65.1 | 68.8 | 54.8 | 56.5 | 39.8 | 56.8 | 236 | 164 | viability, T/C (second compound 0.1 µM, first compound 0.000316 µM): 93.4%; viability, T/C (second compound 0.1 µM, first compound 0.001 µM): 80.7%; viability, T/C (second compound 0.316 µM, first compound 0.000316 µM): 99.6%; viability, T/C (second compound 0.316 µM, first compound 0.001 µM): 84.3%; viability, T/C [8]: 81.4%; viability, T/C (second compound 1 µM, first compound 0.000316 µM): 151%; viability, T/C (second compound 1 µM, first compound 0.001 µM): 85%; viability, T/C [13]: 102%; viability, T/C [14]: 55.1%; viability, T/C (second compound 3.16 µM, first compound 0.000316 µM): 78.3%; viability, T/C (second compound 3.16 µM, first compound 0.001 µM): 105%; viability, T/C [19]: 82.3%; viability, T/C [20]: 70.6%; viability, T/C (second compound 10 µM, first compound 0.000316 µM): 241%; viability, T/C (second compound 10 µM, first compound 0.001 µM): 216%; viability, T/C [25]: 201%; viability, T/C [26]: 173% |
| O=C(c1cc(Cc2n[nH]c(=O)c3ccccc23)ccc1F)N1CCN(C(=O)C2CC2)CC1 + Cc1c(S(C)(=O)=O)c(-c2cc(F)cc(N3CCN(c4ccc(NS(=O)(=O)c5ccc(NC(CCN6CCC(C(=O)OCCCP(=O)(O)O)CC6)CSc6ccccc6)c(S(=O)(=O)C(F)(F)F)c5)cc4)CC3)c2)c(-c2ccc(Cl)cc2)n1C(C)C | 5690 | > 10000 | 835 | > 10000 | > 10000 |  |  | 74.6 | 73.8 | 66.1 | 68.3 |  | 51.4 | 55.3 | 68.5 | 88.3 | 71.5 | 50.3 | 103 | 172 | viability, T/C (second compound 0.1 µM, first compound 3.16 µM): 59%; viability, T/C (second compound 0.1 µM, first compound 10 µM): 41.4%; viability, T/C [11]: 61.4%; viability, T/C [12]: 68.4%; viability, T/C (second compound 0.316 µM, first compound 3.16 µM): 70.1%; viability, T/C (second compound 0.316 µM, first compound 10 µM): 63.2%; viability, T/C [17]: 63.4%; viability, T/C [18]: 45.6%; viability, T/C (second compound 1 µM, first compound 3.16 µM): 52.6%; viability, T/C (second compound 1 µM, first compound 10 µM): 44.4%; viability, T/C [23]: 95.8%; viability, T/C [24]: 70.2%; viability, T/C (second compound 3.16 µM, first compound 3.16 µM): 72.9%; viability, T/C (second compound 3.16 µM, first compound 10 µM): 49.8%; viability, T/C [29]: 117%; viability, T/C [30]: 139%; viability, T/C (second compound 10 µM, first compound 3.16 µM): 102%; viability, T/C (second compound 10 µM, first compound 10 µM): 99.9% |
| O=C(c1ccc(F)c(F)c1Nc1ccc(I)cc1F)N1CC(O)([C@@H]2CCCCN2)C1 + Cc1c(S(C)(=O)=O)c(-c2cc(F)cc(N3CCN(c4ccc(NS(=O)(=O)c5ccc(NC(CCN6CCC(C(=O)OCCCP(=O)(O)O)CC6)CSc6ccccc6)c(S(=O)(=O)C(F)(F)F)c5)cc4)CC3)c2)c(-c2ccc(Cl)cc2)n1C(C)C | 103 | 21.3 | 32.2 | 39.9 | 78.8 | 64 | 60.4 | 69.8 | 45.5 | 34.5 | 19.9 | 66.9 | 56.5 | 37.8 | 49.1 | 37.6 | 50.8 | 31.6 | 135 | 36.1 | viability, T/C [8]: 44.6%; viability, T/C [11]: 23.2%; viability, T/C [12]: 13%; viability, T/C [13]: 82%; viability, T/C [14]: 64.6%; viability, T/C [17]: 18.1%; viability, T/C [18]: 5.29%; viability, T/C [19]: 61.2%; viability, T/C [20]: 75.1%; viability, T/C [23]: 9.65%; viability, T/C [24]: 5.32%; viability, T/C [25]: 169%; viability, T/C [26]: 242%; viability, T/C [29]: 10.6%; viability, T/C [30]: 2.76% |
